Test results: patent US7824868B2, “Formation of superfibronectin by BBK32 and uses therefor” (priority 2007, dated 2010)

B1: BBK32(21-205): Recombinant fibronectin-binding segment, residues 21-205, of Borrelia burgdorferi lipoprotein BBK32 (SEQ ID NO: 6) (protein)
chain: DLFIRYEMKEESPGLFDKGNSILETSEESIKKPIKKPMNKKGKGKIARKKGKSKVSRKEPYIHSLKRDSANKSNFLQKNVILEEESLKTELLKEQSETRKEKIQKQQDEYKGMTQGSLNSLSGESGELEEPIESNEIDLTIDSDLRPKSSLQGIAGSNSISYTDEIEEEDYDQYYLDEYDEEDEEEIRL
modifications: recombinant peptide from residues 21-205 of BBK32
B2: BBK32(21-354): Recombinant intact BBK32 protein, residues 21-354, including the C-terminal globular domain (SEQ ID NO: 5) (protein)
chain: DLFIRYEMKEESPGLFDKGNSILETSEESIKKPIKKPMNKKGKGKIARKKGKSKVSRKEPYIHSLKRDSANKSNFLQKNVILEEESLKTELLKEQSETRKEKIQKQQDEYKGMTQGSLNSLSGESGELEEPIESNEIDLTIDSDLRPKSSLQGIAGSNSISYTDEIEEEDYDQYYLDEYDEEDEEEIRLSNRYQSYLEGVKYNVDSAIQTITKIYNTYTLFSTKLTQMYSTRLDNFAKAKAKEEAAKFTKEDLEKNFKTLLNYIQVSVKTAANFVYINDTHAKRKLENIEAEIKTLIAKKIEQSNLYEAYKAIVTSILLMRDSLKEVQGIIDKNGVWY
modifications: recombinant peptide from residues 21-354 of BBK32

What was measured:
[1] = tested on: fibronectin matrix assembly; conditions: cited from earlier work
plasma fibronectin = assay: Proteolytic (thermolysin) digestion of fibronectin aggregates; format: biochemical, human; conditions: 20 μM inducer, 1 μM plasma fibronectin, 5 μg/ml thermolysin 2 hours, SDS-PAGE
Protocol: The sequences obtained, SSPVVID (SEQ ID No. 12), AVEENQE (SEQ ID No. 13), and ITETIP (SEQ ID No. 14), were located to the end of ^13F3, middle of ^3F3, and the start of ^1F3, respectively for both BBK32/fibronectin and Anastellin/fibronectin. Pre-stained protein standard (New England Biolabs).
BBK32, Anastellin, and plasma fibronectin were dialyzed into thermolysin digestion buffer (25 mM Tris, 0.5 mM EDTA, pH 8, 50 mM NaCl, and 2.5 mM CaCl2). 20 μM BBK32 or 20 μM Anastellin was added to 1 μM plasma fibronectin. Solutions were mixed and aggregates were allowed to form for one hour at room temperature. After one hour incubation, 5 μg/ml thermolysin (Sigma) was added to the BBK32-sFn, the Anastellin-sFn, and to plasma fibronectin. The solutions were incubated at room temperature with end-over-end mixing for 2 hours. Digestion was stopped after two hours with the addition of EDTA to a final concentration of 5 mM. Samples were then run on 4-20% gradient SDS-PAGE gels under non-reducing conditions. […] Excess stain was removed with 40% methanol and bands that were present in BBK32-sFn and Anastellin-sFn, but not in plasma fibronectin lanes, were excised and analyzed by N-terminal sequencing using Edman degradation (Protein Sequencing Division, Tufts University Core Facility, Boston, Mass.).

[2] = tested on: fibronectin matrix of normal human dermal fibroblasts (NHDFs); assay: Effects on fibronectin matrix assembled by normal human dermal fibroblasts (immunostaining); format: cell-based; conditions: 5 μM, 20 hours
Protocol: Cells were treated for 20 hours and then fixed. […] Treated cells were incubated for 20 hours and probed with Alexa Fluor 488-anti-fibronectin, monoclonal antibody IST-1, and monoclonal antibody IST-9. Images were taken using LSM 510 Confocal Microscope. Bar=10 μm.
4×10^4 adult normal human dermal fibroblasts (NHDFs) (Cambrex, East Rutherford, N.J.) were seeded onto glass coverslips in 24 well Costar tissue culture plates in Fibroblast growth media-2 (FGM-2) (Cambrex). Cells were allowed to grow for 48 hours and then BBK32, Anastellin, or FnbpA peptide D3 was added to a final concentration of 5 μM in FGM-2. Treated cells were incubated for 20 hours at 37° C., 5% CO2. After incubation, cells were washed with Dulbecco's PBS (DPBS) (Gibco, Invitrogen, Carlsbad, Calif.) and fixed with 2% paraformaldehyde for 30 minutes at room temperature. Following washing with DPBS, cells were blocked with 1% BSA for one hour at room temperature. Cells were then probed with Alexa Fluor 488-anti-fibronectin, Texas Red anti-His, monoclonal antibodies IST-1 (plasma and cellular fibronectin) and IST-9 (cellular fibronectin) (abcam, Cambridge, UK) or combinations of antibodies at a dilution of 1:3000 for one hour at room temperature. Following extensive washing with DPBS, appropriate fluorescently labeled secondary antibodies (Alexa Fluor 594-goat anti-mouse) (Invitrogen, Carlsbad, Calif.) were added at a dilution of 1:3000 and incubated for one hour at room temperature. After incubation, cells were washed extensively with DPBS and coverslips were mounted using Gel/Mount (biømeda, Foster City, Calif.) onto glass slides and images were taken using a LSM 510 Confocal Microscope (Zeiss).

[3] = tested on: purified plasma fibronectin; assay: Fibronectin aggregation assay (O.D.600); format: biochemical, human; conditions: for induction of plasma fibronectin aggregation (in words): 1 μM purified plasma fibronectin, absorbance at 600 nm
Protocol: BBK32, FnbpA peptide D3, Anastellin, and purified plasma fibronectin were centrifuged at 14,000 rpm for 15 minutes and then filtered through 0.22 μm PES syringe filters (Nalgene, Rochester, N.Y.). Following filtration, BBK32, FnbpA peptide D3, and Anastellin were titrated into 1 μM purified plasma fibronectin in TBS. After the addition of each aliquot, the fibronectin/protein mixture was carefully mixed five times with a 200 μl pipette and optical density at 600 nm was measured using a BioPhotometer (Eppendorf, New York, N.Y.) after 10 seconds.

[4] = tested on: human umbilical vein endothelial cells (HUVECs); assay: Endothelial cell proliferation assay; format: cell-based; conditions: 72 hours; for effect on proliferation of endothelial cells (in words): cell counts
Protocol: Cells were seeded onto tissue culture plates in full media and allowed to adhere for two hours. […] Cells were then incubated for 72 hours at 37° C., 5% CO2. After 72 hours, wells were washed, trypsinized, and counted (three counts/well, three wells/dose) using a hemacytometer.
1×10^4 human umbilical vein endothelial cells (HUVECs) (Cambrex) were seeded into Costar 24 well tissue culture plates in endothelial growth media-2 (EGM-2) (Cambrex) and allowed to adhere for two hours. After two hours, BBK32, Anastellin, and FnbpA peptide D3 were added in a dose dependent manner (triplicate) to the wells suspended in EGM-2. Cells were allowed to incubate for 72 hours at 37° C., 5% CO2. After 72 hours, wells were washed with PBS and cells were trypsinized with 0.5% trypsin/EDTA (Cambrex). Trypsinized cells were collected in microcentrifuge tubes and trypsin/EDTA was neutralized with EGM-2. Cells were counted from each well (three counts/well, three wells/dose) using a hemacytometer.

^1F3 fibronectin module = biological target: T1, ^1F3 fibronectin module (Homo sapiens, UniProt P02751); assay: ELISA-type binding assay, immobilized 1F3 module
T1 construct: His-tag (N); made in house
Protocol: Binding to ^1F3 (FIG. 1A), ^1-2F3 (FIG. 1B), and ^3F3 (FIG. 1C) was assessed using ELISA-type assays. F3 modules were immobilized in microtiter wells and blocked with Ovalbumin.
Binding of BBK32 to F3 modules was tested by coating 1 μg of recombinant ^1F3, ^1-2F3, and ^3F3 modules in 50 μl of 50 mM Tris-HCl, 150 mM NaCl, pH 7.5 (TBS) per well in Immulon 4HBX microtiter plates (Dynatech Laboratories, Chantilly, Va.) and incubating overnight at 4° C. The next day, the wells were washed with 200 μl TBS, 0.05% Tween 20, pH 7.4 (TBST) and blocked with 200 μl TBST containing 2% ovalbumin (Sigma, St. Louis, Mo.) for one hour at room temperature. […] Plates were incubated for one hour at room temperature. After washing with TBST, primary antibodies (rabbit IgG anti-BBK32 or rabbit IgG anti-FnbpA) were added to each well at a 0.48 μg/ml. Plates were incubated for one hour at room temperature and then were washed again with TBST.
Following washing, a 1:3000 dilution of HRP-conjugated goat-anti-rabbit antibodies (BioRad, Hercules, Calif.) was added to each well. Plates were incubated for one hour at room temperature and then washed with TBST. […] Absorbance was measured at 450 nm using a Thermo Max microplate reader (Molecular Devices, Sunnyvale, Calif.). Apparent Kds were calculated by assessing maximal half-binding (Y=Bmax·X/(Kd+X)).

[5] = tested on: leukocyte (mononuclear cell) migration across endothelial cell layer; assay: Transendothelial migration assay (Transwell); format: cell-based; conditions: IL-4 treated endothelial layer, IL-8 chemoattractant, four hours
Protocol: To determine if sFn decrease the migration of leukocytes to the infection site, transendothelial migration assays were assessed. In these assays endothelial cells were grown to confluence in Transwell® inserts and were encouraged to form tight junctions using interleukin 4 (IL-4). SFn formation was then induced to form on the surface of the endothelial cell layer using BBK32 (21-354), (21-205) and (153-175). A chemoattractant (IL-8) was added to the bottom chamber of the Transwell setup. Mononuclear cells were added to the upper chamber and permitted to migrate for four hours. Following incubation, cells in the bottom chamber were counted.

[6] = tested on: fibronectin 56 kDa and 45 kDa gelatin binding fragments; assay: Far Western blot of thermolysin digest of fibronectin; conditions: 56 kDa fragment vs 45 kDa gelatin binding fragment
Excerpt: BBK32 binds to the ^1F1-^5F1 N-terminal segment of fibronectin by the tandem beta-zipper mechanism (6-7).

endothelial cells = assay: Annexin V apoptosis assay on endothelial cells; format: cell-based; conditions: not shown
[7] = Stability of recombinant protein; format: physicochemical

Sequence of purified plasma fibronectin (P02751 32-1265 limits assumed): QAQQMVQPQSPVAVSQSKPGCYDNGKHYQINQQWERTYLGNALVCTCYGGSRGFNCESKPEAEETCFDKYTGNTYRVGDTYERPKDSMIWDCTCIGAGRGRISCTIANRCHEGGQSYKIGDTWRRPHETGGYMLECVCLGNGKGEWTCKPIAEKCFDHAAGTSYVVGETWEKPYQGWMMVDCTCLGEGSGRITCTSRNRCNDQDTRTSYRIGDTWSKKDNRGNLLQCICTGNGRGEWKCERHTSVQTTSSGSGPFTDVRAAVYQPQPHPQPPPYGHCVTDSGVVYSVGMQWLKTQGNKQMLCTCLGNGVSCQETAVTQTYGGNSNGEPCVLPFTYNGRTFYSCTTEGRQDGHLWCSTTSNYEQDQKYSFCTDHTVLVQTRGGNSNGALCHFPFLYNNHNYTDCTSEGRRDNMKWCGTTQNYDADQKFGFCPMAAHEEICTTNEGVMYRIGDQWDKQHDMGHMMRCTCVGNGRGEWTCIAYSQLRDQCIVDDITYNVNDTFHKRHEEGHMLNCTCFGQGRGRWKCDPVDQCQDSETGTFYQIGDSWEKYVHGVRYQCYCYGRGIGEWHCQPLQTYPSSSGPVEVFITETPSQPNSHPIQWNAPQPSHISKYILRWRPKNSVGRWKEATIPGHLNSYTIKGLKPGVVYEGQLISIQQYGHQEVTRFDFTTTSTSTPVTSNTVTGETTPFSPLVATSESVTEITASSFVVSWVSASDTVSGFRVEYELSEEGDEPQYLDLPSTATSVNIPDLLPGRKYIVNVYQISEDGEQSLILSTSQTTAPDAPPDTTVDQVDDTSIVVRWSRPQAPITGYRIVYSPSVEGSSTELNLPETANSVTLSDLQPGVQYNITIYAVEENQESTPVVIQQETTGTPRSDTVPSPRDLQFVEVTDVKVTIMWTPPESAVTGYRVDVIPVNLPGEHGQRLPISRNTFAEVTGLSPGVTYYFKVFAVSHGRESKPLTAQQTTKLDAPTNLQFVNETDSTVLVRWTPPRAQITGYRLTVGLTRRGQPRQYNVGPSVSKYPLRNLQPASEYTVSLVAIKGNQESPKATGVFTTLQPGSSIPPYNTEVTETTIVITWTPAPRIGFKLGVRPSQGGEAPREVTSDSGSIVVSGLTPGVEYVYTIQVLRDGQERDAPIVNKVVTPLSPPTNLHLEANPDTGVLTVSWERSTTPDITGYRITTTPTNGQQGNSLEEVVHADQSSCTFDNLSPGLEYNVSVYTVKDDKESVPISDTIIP
Sequence of plasma fibronectin (P02751 32-1265 limits assumed): as above
T1 sequence (P02751 608-700): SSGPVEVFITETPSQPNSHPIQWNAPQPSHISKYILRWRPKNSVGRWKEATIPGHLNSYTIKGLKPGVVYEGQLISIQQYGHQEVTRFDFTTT

Molecule	concentration at which matrix assembly is blocked ([1]; high concentrations, 16 hour incubation causes disappearance of pre-existing matrix)	concentration at which fibronectin matrix assembly is promoted ([1]; low concentrations)	thermolysin fragment profile of induced fibronectin aggregates (plasma fibronectin)	co-localization with fibronectin in the extracellular matrix [2]	immunostaining with monoclonal antibody IST 9 (EDA epitope of cellular fibronectin) [2]	induction of plasma fibronectin aggregation (in words) [3]	effect on proliferation of endothelial cells (in words) [4]	binding to the ^1F3 module (in words) (^1F3 fibronectin module)	inhibition of transendothelial migration by induced sFn [5]	relative binding to fibronectin thermolysin fragments [6]	fibronectin aggregation on addition of detergent Triton X-100 ([3]; Triton X-100 added, not shown)	Annexin V assays (apoptosis) (endothelial cells)	potency at inhibiting endothelial cell proliferation relative to Anastellin [4]	stability of the recombinant protein [7]
Anastellin: Recombinant form of the C-terminal two-thirds of fibronectin ^1F3 with C-terminal His-tag; known inducer of superfibronectin	above 20 μM	less than 5 μM	very similar fragment profiles	co-localize with fibronectin	markedly reduced immunostaining with IST 9	induced fibronectin aggregation	concentration dependent manner							
FnbpA peptide D3: S. aureus fibronectin-binding peptide D3 of MSCRAMM FnbpA, synthesized and purified by HPLC; used as control (GFNKHTEIIEEDTNKDKPSYQFGGHNSVDFEEDTLPK)				co-localize with fibronectin	no different from the staining observed for the no treatment control	not the D3 protein induced fibronectin aggregation	only marginally affected the proliferation of cells	did not to bind the ^1F3 module						
IDLTIDSDLRPKSSLQGIAGSNS (recombinant peptide from residues 153-175 of BBK32) [BBK32(153-175), BBK32 peptide, residues 153-175, containing the motifs similar to anastellin]					indicates conformational changes in fibronectin in matrices produced by fibroblasts	induce aggregation of plasma fibronectin in a concentration dependent manner	inhibits human umbilical vein endothelial cell proliferation in a concentration dependent manner		as effective at inhibiting transendothelial migration as the full length BBK32 protein					
B1			very similar fragment profiles	co-localize with fibronectin	reduction of immunostaining with IST 9	induced fibronectin aggregation	inhibited the proliferation of endothelial cells in a concentration dependent manner			binds more strongly to the 56 kDa fragment than to the 45 kDa gelatin binding fragment	inhibited fibronectin aggregation	negative	reproducibly more potent at inhibiting endothelial cell proliferation than Anastellin	
B2						induced aggregation of fibronectin at lower concentrations than BBK32(21-205)								unstable and susceptible to degradation
